From the supplement of paper PMC9151546

Legend:
CHO-K1 [1] = experiment: benchmark concentration for 60% increase in hypodiploid frequency (BMC60); higher = less potent aneugen; conditions: S9 metabolic activation: without S9
Procedure, shortened: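 CHO cells were exposed to 19 concentrations (4.50–200 µM; 1% DMSO vehicle) for 24 h at 37 °C without S9, or 3–4 h with Aroclor 1254-induced rat liver S9 then 24 h recovery. Hypodiploid nuclei percentage was measured by flow cytometry; concentrations with relative survival below 40% were excluded, and benchmark response was a 60% increase over DMSO control. The benchmark concentration was fitted in PROAST with Hill and exponential model families.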

CHO-K1 [2] = experiment: benchmark concentration for 30% increase in micronucleus frequency (BMC30); higher = less potent clastogen; conditions: S9 metabolic activation: without S9
Method: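 Benchmark concentration modelling (PROAST, Hill/exponential model families) of the 19-concentration flow-cytometric micronucleus assay in CHO-K1 cells, with and without rat liver S9. Only non-cytotoxic and adequate (relative survival >=40%) concentrations were used. BMR was a 30% increase in %MN (BMC30) or a 60% increase in %hypodiploid (BMC60) over control.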

Q: What does the source list for `Cc1cccc(C)c1O` [2,6-Dimethylphenol]?
A: benchmark concentration (CHO-K1 [1]): 110 µM; benchmark concentration (CHO-K1 [2]): 87 µM
